Assay results: ChEMBL document CHEMBL3132771, “Machine-assisted synthesis of modulators of the histone reader BRD9 using flow methods of chemistry and frontal affinity chromatography” (Medchemcomm, 2014)
Calls of active or inactive are those of the source. The rule behind the calls is not given here.

What was measured:
[1] = molecular target: T1, Bromodomain-containing protein 9 (Homo sapiens) (UniProt Q9H8M2); test: Binding affinity to human recombinant biotinylated BRD9 assessed as change in melting temperature at 4 uM by thermal shift assay
T1 sequence (whole entry): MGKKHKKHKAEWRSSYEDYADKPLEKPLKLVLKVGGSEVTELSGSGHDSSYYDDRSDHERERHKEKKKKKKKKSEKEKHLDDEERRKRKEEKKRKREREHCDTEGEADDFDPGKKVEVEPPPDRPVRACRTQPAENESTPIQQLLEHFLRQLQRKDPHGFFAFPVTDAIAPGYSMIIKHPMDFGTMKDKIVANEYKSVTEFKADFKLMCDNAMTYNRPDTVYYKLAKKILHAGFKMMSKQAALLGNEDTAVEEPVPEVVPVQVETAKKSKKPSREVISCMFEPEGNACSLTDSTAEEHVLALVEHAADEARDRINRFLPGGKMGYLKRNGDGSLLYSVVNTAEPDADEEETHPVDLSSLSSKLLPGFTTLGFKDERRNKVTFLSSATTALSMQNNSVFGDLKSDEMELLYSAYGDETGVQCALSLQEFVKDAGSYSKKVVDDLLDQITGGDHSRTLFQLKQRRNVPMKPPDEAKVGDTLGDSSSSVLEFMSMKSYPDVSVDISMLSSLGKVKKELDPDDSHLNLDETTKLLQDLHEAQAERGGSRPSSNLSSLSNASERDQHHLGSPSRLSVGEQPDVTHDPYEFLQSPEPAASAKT

[2] = molecular target: Bromodomain-containing protein 4 (Homo sapiens) (UniProt O60885); test: Binding affinity to BRD4 (unknown origin) at 4 uM by thermal shift assay
[3] = molecular target: T1, Bromodomain-containing protein 9 (Homo sapiens); test: Binding affinity to human recombinant biotinylated BRD9 assessed as retention volume at 4 uM by FAC-MS analysis
[4] = molecular target: T1, Bromodomain-containing protein 9 (Homo sapiens); test: Binding affinity to human recombinant biotinylated BRD9 by UV spectrophotometric analysis
[5] = molecular target: T1, Bromodomain-containing protein 9 (Homo sapiens); test: Binding affinity to human recombinant biotinylated BRD9 assessed as retention volume at 50 uM by FAC-MS analysis
[6] = molecular target: T1, Bromodomain-containing protein 9 (Homo sapiens); test: Binding affinity to human recombinant biotinylated BRD9 at 4 uM after 120 mins by FAC-MS analysis
[7] = molecular target: CREB-binding protein (Homo sapiens) (UniProt Q92793); test: Binding affinity to CREBBP (unknown origin) at 4 uM by thermal shift assay
Sequence of CREB-binding protein (Homo sapiens) (Q92793 2-2442 limits assumed): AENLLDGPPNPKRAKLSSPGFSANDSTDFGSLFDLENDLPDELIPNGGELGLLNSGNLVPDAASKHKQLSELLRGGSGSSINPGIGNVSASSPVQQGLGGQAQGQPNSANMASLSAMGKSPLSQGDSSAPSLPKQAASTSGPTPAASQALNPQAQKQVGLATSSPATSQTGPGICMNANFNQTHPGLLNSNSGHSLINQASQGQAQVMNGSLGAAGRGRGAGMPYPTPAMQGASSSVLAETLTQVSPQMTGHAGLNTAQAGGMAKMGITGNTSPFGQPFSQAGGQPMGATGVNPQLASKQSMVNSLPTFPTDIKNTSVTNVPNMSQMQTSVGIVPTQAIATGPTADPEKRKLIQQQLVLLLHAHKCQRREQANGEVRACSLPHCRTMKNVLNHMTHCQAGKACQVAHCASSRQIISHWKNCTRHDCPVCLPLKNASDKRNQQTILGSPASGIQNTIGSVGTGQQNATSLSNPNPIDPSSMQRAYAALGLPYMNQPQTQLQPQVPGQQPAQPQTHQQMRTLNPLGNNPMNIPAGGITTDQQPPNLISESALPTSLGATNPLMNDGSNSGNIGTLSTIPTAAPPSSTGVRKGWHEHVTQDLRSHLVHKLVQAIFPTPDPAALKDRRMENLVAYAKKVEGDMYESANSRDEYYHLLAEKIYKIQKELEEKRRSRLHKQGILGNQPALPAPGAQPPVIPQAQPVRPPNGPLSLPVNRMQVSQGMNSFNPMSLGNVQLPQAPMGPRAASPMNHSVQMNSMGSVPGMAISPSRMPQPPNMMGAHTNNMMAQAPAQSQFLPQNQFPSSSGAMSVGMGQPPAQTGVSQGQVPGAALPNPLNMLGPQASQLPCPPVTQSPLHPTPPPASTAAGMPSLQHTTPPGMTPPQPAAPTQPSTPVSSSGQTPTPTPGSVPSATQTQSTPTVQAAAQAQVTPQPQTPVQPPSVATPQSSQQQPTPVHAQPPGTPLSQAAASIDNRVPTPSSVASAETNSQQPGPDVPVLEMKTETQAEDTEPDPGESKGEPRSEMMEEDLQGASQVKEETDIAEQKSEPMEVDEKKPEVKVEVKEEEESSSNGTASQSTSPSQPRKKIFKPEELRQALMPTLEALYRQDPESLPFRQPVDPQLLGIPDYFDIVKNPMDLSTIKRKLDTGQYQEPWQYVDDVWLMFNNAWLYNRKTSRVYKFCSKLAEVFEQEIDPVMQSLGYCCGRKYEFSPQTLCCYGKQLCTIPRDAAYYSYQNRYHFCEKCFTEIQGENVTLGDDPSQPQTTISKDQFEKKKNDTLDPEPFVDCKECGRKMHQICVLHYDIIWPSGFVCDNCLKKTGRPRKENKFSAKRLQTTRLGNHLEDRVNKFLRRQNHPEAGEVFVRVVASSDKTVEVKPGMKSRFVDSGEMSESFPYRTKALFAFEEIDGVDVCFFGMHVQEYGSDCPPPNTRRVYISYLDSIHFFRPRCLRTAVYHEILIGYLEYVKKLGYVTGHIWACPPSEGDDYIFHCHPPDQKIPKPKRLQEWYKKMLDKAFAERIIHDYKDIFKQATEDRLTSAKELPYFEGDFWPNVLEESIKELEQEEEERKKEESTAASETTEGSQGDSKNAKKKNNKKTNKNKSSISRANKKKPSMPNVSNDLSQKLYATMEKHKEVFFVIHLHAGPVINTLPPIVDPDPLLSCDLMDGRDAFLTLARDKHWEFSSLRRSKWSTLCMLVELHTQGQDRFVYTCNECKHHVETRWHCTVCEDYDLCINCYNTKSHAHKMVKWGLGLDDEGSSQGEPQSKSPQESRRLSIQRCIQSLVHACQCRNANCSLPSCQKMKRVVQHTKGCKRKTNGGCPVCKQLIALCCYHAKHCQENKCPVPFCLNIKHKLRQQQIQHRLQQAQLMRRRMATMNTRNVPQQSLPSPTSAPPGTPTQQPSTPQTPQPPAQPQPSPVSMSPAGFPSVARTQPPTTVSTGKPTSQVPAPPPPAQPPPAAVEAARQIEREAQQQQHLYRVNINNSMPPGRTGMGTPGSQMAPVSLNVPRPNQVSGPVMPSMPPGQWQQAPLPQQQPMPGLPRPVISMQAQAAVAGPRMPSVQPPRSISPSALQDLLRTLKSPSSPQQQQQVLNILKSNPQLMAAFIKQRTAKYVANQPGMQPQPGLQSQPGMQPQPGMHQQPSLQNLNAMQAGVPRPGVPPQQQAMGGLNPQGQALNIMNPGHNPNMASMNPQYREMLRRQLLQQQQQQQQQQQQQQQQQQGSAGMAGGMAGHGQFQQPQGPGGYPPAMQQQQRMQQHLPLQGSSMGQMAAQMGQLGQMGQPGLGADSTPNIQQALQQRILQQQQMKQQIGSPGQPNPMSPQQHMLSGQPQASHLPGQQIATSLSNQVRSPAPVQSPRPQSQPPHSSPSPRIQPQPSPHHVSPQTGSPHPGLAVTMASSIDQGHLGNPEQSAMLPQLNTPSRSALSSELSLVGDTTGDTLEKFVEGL

[8] = molecular target: Chromatin remodeling regulator CECR2 (Homo sapiens) (UniProt Q9BXF3); test: Binding affinity to CECR2 (unknown origin) at 4 uM by thermal shift assay
Sequence of Chromatin remodeling regulator CECR2 (Homo sapiens) (Q9BXF3 whole entry, looked up): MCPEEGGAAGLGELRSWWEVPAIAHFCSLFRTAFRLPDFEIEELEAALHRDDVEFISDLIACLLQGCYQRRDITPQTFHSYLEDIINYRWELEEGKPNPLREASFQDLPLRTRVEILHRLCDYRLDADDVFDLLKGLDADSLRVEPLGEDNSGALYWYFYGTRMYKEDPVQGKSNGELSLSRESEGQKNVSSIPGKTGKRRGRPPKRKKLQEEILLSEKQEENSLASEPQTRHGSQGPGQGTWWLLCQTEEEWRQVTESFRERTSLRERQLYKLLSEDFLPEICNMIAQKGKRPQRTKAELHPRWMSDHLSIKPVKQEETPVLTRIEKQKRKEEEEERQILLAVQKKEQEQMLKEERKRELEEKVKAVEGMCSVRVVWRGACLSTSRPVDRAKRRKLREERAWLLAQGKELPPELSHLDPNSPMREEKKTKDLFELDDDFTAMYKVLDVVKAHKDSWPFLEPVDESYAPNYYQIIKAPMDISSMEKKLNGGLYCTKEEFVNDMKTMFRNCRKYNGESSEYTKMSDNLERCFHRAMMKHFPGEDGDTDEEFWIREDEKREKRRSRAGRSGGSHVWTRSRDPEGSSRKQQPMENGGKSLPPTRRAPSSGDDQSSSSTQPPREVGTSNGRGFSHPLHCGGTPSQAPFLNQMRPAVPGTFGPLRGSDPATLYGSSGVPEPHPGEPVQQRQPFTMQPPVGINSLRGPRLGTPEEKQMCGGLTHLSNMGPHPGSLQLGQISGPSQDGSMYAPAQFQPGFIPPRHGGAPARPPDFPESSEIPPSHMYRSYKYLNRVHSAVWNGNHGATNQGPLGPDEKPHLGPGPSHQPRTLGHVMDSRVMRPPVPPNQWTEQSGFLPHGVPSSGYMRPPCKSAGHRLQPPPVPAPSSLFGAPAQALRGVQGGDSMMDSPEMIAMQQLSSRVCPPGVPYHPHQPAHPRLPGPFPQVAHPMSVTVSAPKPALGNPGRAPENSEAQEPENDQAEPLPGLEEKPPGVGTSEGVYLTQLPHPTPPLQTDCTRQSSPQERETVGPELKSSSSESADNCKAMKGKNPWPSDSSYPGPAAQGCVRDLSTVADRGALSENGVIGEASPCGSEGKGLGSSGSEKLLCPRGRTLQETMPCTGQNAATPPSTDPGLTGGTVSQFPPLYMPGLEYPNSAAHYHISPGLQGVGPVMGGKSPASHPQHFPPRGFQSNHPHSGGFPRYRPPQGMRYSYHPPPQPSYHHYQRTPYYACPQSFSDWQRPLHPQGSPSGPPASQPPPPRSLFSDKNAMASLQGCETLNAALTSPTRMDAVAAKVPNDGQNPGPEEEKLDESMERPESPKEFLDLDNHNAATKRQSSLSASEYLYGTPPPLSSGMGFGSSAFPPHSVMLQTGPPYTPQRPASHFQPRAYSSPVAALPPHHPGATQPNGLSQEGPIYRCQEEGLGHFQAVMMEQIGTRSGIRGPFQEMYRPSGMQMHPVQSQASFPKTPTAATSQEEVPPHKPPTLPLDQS

Homo sapiens [9] = species: Homo sapiens; test: Binding affinity to EP300A (unknown origin) at 4 uM by thermal shift assay
[10] = molecular target: T2, Bromodomain and PHD finger-containing protein 3 (Homo sapiens) (UniProt Q9ULD4); test: Binding affinity to BRPF3 (unknown origin) at 4 uM by thermal shift assay
T2 sequence (whole entry): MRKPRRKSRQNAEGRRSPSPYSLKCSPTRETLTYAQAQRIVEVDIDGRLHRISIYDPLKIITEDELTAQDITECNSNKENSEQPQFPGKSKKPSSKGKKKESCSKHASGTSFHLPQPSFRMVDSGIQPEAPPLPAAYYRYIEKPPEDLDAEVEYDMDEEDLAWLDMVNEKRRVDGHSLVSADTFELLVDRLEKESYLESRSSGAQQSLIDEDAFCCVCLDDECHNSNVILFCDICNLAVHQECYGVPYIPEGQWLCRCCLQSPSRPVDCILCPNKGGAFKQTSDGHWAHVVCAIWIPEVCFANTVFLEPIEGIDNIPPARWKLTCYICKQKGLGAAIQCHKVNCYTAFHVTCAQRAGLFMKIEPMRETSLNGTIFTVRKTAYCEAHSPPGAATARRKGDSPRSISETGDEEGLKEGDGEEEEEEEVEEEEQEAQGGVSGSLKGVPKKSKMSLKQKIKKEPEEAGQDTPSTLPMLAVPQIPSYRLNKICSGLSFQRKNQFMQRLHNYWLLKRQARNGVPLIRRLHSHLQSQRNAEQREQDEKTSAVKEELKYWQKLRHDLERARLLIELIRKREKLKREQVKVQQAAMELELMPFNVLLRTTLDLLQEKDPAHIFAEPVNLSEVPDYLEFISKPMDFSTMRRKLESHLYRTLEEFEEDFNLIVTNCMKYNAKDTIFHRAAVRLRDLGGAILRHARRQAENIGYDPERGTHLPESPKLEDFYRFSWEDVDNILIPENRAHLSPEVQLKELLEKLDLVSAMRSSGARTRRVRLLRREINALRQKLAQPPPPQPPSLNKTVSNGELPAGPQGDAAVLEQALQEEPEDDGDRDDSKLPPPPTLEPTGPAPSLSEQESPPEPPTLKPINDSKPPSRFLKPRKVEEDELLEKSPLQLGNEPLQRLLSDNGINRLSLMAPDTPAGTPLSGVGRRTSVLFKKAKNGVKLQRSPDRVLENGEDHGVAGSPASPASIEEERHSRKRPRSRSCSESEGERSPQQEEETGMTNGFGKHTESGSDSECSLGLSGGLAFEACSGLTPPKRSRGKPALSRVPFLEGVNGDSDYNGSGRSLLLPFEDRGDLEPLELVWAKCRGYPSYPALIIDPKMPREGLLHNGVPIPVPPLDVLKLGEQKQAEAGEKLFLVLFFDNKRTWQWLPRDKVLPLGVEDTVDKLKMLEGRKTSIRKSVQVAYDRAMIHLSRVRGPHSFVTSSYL

Peregrin (Homo sapiens) = molecular target: T3, Peregrin (Homo sapiens) (UniProt P55201); test: Binding affinity to BRPF1 (unknown origin) at 4 uM by thermal shift assay
T3 sequence (whole entry): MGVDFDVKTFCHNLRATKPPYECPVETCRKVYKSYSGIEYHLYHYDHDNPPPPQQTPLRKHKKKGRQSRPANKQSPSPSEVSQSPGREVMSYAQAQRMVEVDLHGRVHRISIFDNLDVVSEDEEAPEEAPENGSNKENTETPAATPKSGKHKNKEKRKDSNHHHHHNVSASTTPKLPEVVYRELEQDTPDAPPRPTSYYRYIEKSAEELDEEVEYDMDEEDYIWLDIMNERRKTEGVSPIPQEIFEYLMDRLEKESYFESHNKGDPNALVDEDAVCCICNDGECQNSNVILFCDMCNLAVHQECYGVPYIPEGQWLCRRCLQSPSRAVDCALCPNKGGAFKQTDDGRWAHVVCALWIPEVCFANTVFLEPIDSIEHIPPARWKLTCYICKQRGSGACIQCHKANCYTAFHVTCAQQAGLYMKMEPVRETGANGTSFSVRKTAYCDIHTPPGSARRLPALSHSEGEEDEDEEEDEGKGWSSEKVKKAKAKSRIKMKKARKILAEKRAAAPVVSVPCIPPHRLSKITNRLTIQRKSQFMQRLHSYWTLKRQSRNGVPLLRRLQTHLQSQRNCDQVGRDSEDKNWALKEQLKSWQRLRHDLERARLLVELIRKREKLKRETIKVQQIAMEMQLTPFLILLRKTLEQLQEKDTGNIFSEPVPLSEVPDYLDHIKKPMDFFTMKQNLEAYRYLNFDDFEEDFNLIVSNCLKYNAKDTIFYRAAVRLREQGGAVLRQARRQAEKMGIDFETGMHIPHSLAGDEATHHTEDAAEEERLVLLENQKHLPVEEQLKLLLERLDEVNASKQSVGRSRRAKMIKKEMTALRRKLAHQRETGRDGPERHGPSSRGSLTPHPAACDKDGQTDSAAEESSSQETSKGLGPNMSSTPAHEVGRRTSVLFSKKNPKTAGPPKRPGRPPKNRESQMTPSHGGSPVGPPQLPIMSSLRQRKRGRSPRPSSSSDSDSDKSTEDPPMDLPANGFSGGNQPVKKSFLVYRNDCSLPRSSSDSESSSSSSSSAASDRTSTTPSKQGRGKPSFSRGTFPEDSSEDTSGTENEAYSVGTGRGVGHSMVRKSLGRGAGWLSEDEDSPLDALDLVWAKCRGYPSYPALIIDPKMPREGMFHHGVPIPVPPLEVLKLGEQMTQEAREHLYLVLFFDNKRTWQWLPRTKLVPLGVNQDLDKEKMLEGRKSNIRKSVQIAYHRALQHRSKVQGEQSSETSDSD

[11] = molecular target: T4, Transcription intermediary factor 1-alpha (Homo sapiens) (UniProt O15164); test: Binding affinity to TIF1 (unknown origin) at 4 uM by thermal shift assay
T4 sequence (whole entry): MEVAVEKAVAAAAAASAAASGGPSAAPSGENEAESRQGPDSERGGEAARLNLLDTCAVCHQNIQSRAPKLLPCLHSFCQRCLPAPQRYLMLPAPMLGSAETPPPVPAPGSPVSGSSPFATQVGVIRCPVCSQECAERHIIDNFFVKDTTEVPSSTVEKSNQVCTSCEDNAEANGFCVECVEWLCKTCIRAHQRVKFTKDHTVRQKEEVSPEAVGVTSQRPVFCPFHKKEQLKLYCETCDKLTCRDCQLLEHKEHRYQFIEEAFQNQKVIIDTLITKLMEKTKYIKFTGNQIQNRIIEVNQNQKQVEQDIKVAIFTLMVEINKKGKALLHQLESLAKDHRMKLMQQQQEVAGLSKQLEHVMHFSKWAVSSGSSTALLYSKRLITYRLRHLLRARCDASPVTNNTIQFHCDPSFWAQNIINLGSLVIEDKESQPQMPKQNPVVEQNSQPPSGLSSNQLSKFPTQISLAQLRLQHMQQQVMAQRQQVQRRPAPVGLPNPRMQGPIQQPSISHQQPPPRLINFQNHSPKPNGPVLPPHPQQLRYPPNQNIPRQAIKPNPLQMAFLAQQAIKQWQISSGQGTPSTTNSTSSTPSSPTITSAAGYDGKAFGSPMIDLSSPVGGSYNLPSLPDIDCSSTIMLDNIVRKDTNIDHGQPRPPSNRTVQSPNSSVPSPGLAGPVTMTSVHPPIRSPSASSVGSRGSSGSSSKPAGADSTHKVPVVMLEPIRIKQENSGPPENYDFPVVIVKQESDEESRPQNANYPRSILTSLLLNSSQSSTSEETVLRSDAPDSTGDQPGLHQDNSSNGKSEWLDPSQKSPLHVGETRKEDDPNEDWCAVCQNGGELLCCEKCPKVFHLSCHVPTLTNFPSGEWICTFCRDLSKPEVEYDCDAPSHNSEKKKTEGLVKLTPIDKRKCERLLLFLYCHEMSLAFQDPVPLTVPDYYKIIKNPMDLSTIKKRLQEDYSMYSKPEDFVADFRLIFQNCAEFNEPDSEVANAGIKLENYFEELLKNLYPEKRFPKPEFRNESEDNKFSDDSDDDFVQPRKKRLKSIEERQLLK

Homo sapiens [12] = species: Homo sapiens; test: Binding affinity to BRD1A (unknown origin) at 4 uM by thermal shift assay
[13] = molecular target: T5, Bromodomain-containing protein 9 (Homo sapiens, UniProt Q9H8M2); test: Binding affinity to human recombinant biotinylated BRD9 compound treated in ammonium acetate buffer by FAC-MS analysis
T5 sequence (Q9H8M2 whole entry): T1 sequence (whole entry)

[14] = molecular target: T5, Bromodomain-containing protein 9; test: Binding affinity to human recombinant biotinylated BRD9 compound treated in PBS buffer by FAC-MS analysis

| ΔTm [1] [°C] | Activity [2] | Activity [3] [µL] | Activity [4] | Activity [7] | Activity [8] | Activity (Homo sapiens [9]) | Activity [10] | Activity (Peregrin (Homo sapiens)) | Activity [11] | Activity (Homo sapiens [12]) | Structure (SMILES) | other results |
| --- | --- | --- | --- | --- | --- | --- | --- | --- | --- | --- | --- | --- |
| 2.4 | Active | 784 | Active | – | – | – | – | – | – | – | Cc1ccc(-c2cc(N)c3nnc(C)n3n2)cc1NS(=O)(=O)c1ccccc1Cl | – |
| 8.8 | – | > 3600 | – | – | – | – | – | – | – | – | CCOC(=O)Nc1cc(-c2ccc(C)c(NS(C)(=O)=O)c2)nn2c(C)nnc12 | Activity [5]: 324 µL; Activity [6]: inactive |
| 0.6 | inactive | 270 | Active | inactive | inactive | inactive | inactive | inactive | inactive | inactive | COc1ccc(-c2ccc3nnc(C(F)(F)F)n3n2)cc1 | – |
| 4.3 | Active | 1170 | Active | – | – | Active | – | – | – | – | Cc1ccc(-c2cc(N)c3nnc(C)n3n2)cc1NS(=O)(=O)c1ccc(Cl)c(Cl)c1 | – |
| – | – | – | Active | – | – | – | – | – | – | – | Cc1nnc2c(N)cc(Cl)nn12 | – |
| – | – | – | Active | – | – | – | – | – | – | – | Cc1ccc(-c2cc(N)c3nnc(C)n3n2)cc1NS(=O)(=O)c1cccc(Cl)c1 | – |
| 2.7 | inactive | 947 | Active | inactive | inactive | inactive | inactive | inactive | inactive | inactive | CCOC(=O)N(c1cc(-c2cc(N)c3nnc(C)n3n2)ccc1C)S(=O)(=O)c1ccc(Cl)cc1 | – |
| -0.6 | inactive | 212 | Active | inactive | inactive | inactive | inactive | inactive | inactive | inactive | FC(F)(F)c1nnc2ccc(-c3ccccc3)nn12 | – |
| – | – | – | – | – | – | – | – | – | – | – | Cc1nnc2c(NC(=O)OC(C)(C)C)cc(-c3ccccc3)nn12 | Kd [13]: 8.35 µM; Kd [14]: 8.35 µM |
| – | – | – | Active | – | – | – | – | – | – | – | CCOC(=O)N(c1cc(-c2cc(N)c3nnc(C)n3n2)ccc1C)S(=O)(=O)c1ccccc1Cl | – |
